From ChEMBL document CHEMBL1138654, “Ring nitrogen-substituted non-steroidal estrogens: pyridine and pyrimidine analogs of the phenol in deoxyhexestrol experience resonance constraints on preferred ligand conformation” (Bioorg Med Chem Lett, 2004)

Experiments:
[1] = pKa was determined; format: physicochemical
[2] = biological target: Estrogen receptor beta (Homo sapiens) (UniProt Q92731); experiment: Inhibition of [3H]estradiol binding to human estrogen receptor beta
[3] = biological target: T1, Estrogen receptor (Homo sapiens) (UniProt P03372); experiment: Inhibition of [3H]estradiol binding to human estrogen receptor alpha
T1 sequence (whole entry): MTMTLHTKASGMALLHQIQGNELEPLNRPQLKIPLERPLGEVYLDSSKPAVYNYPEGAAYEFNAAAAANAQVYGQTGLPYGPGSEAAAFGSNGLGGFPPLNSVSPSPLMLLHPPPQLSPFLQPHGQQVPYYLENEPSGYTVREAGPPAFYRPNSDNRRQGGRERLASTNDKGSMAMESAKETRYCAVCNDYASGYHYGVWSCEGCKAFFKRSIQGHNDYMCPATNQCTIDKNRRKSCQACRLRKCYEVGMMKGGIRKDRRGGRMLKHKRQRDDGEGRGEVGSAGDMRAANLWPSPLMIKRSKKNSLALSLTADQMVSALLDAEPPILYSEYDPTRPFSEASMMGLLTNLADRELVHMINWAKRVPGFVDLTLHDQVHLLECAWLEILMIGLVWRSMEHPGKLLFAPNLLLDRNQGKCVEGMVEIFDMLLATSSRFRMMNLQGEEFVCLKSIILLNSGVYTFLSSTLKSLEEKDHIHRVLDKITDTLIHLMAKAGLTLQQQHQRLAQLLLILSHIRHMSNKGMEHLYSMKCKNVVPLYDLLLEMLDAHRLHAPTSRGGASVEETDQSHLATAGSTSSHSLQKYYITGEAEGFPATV

Estrogen receptor beta (Homo sapiens), sequence (Q92731 whole entry): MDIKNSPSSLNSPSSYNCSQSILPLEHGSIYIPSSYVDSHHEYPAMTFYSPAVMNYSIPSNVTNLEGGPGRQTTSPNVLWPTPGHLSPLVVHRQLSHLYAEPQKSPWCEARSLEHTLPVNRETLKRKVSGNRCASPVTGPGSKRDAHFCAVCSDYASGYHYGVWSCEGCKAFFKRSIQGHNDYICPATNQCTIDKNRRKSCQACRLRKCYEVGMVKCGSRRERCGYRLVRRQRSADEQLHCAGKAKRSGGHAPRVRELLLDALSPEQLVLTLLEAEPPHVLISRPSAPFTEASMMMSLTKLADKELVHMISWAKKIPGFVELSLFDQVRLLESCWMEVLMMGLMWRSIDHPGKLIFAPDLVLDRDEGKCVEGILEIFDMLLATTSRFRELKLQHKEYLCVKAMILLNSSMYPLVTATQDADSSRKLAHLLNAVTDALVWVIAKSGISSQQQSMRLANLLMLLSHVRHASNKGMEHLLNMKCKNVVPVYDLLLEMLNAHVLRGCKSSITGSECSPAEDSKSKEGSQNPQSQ

pKa [1]	relative binding affinity (RBA) [2]	relative binding affinity (RBA) [3]	Compound
3.9			CCC(c1ccccc1)N(CC)c1ncc(O)cn1 (stereo not drawn)
	40	2.2	CC(c1ccc(O)cc1)C(C)c1ccc(O)cc1 (stereo not drawn)
